# Measured values from ChEMBL document CHEMBL5576099, “Isolation, Characterization, and Antiproliferative Activity of Terpenoids from the Tropical Plant Turraea delphinensis” (J Nat Prod, 2024).
# Columns and labels:
# Assay type in all cases: functional, cell-based
# [1] = Antiproliferative activity against human KB-VIN cells over expressing p-gp assessed as reduction in cell viability by SRB assay; settings: KBVIN
# MCF7 = assay: Antiproliferative activity against human MCF7 cells assessed as reduction in cell viability by SRB assay
# KB = assay: Antiproliferative activity against human KB cells assessed as reduction in cell viability by SRB assay
# MDA-MB-231 = assay: Antiproliferative activity against human MDA-MB-231 cells assessed as reduction in cell viability by SRB assay
# A549 = assay: Antiproliferative activity against human A549 cells assessed as reduction in cell viability by SRB assay
SMILES,IC50 [1],IC50 (MCF7),IC50 (KB),IC50 (MDA-MB-231),IC50 (A549)
C[C@H](C/C=C/C(C)(C)O)[C@H]1CC[C@@]2(C)[C@@H]3CC[C@H]4C(C)(C)C(=O)CC[C@@]45C[C@@]35CC[C@]12C,> 10 µM,> 10 µM,> 10 µM,> 10 µM,9.6 µM
C[C@@H](C[C@@H](O)[C@H](O)C(C)(C)O)[C@@H]1CC[C@]2(C)C3=CC[C@H]4C(C)(C)[C@@H](O)CC[C@]4(C)[C@H]3CC[C@@]12C,9.7 µM,> 10 µM,8.2 µM,> 10 µM,8 µM
CC(C)=C[C@@H]1C[C@H]([C@H]2CC[C@@]3(C)[C@@H]4CC[C@H]5C(C)(C)C(=O)CC[C@@]56C[C@@]46CC[C@]23C)CO1,> 10 µM,> 10 µM,> 10 µM,> 10 µM,> 10 µM
C[C@@H]([C@H](O)/C=C/C(C)(C)O)[C@@H]1CC[C@]2(C)C3=CC[C@H]4C(C)(C)C(=O)CC[C@]4(C)[C@H]3CC[C@@]12C,9.5 µM,> 10 µM,9 µM,> 10 µM,> 10 µM
C=C[C@]1(C)C=C2C(=O)CC3C(C)(C)CCC[C@]3(C)C2CC1 (stereo partly drawn),> 10 µM,> 10 µM,> 10 µM,> 10 µM,> 10 µM
CC(C)=CC(O)C[C@H](C)[C@@H]1CC[C@]2(C)C3=CCC4C(C)(C)[C@@H](O)CC[C@]4(C)[C@H]3CC[C@@]12C (stereo partly drawn),> 10 µM,> 10 µM,> 10 µM,> 10 µM,> 10 µM
CC1(C)OCC([C@@H]2CC[C@]3(C)C4=CC[C@H]5C(C)(C)C(=O)CC[C@]5(C)[C@H]4CC[C@@]23C)C[C@@H](O)[C@@H]1O (stereo partly drawn),7.9 µM,> 10 µM,9.5 µM,> 10 µM,8.3 µM
C=C[C@]1(C)C=C2C(CC1)[C@@]1(C)CCCC(C)(C)C1C[C@@H]2O (stereo partly drawn),> 10 µM,> 10 µM,> 10 µM,> 10 µM,> 10 µM
CC1(C)C(=O)CC[C@@]2(C)C1CC=C1[C@@H]2CC[C@@]2(C)[C@H](C3CO[C@@H](C(C)(C)O)[C@H](O)C3)CC[C@]12C (stereo partly drawn),> 10 µM,> 10 µM,> 10 µM,> 10 µM,> 10 µM
CC(=O)O[C@H]1[C@@H](OC(C)=O)[C@@]2(C)C3=CC[C@@H]([C@H]4COC(=O)C4)[C@]3(C)CC[C@@H]2[C@@]2(C)[C@@H](O)C[C@@H](O)C(C)(C)[C@H]12,> 10 µM,> 10 µM,> 10 µM,> 10 µM,> 10 µM
CC(C)=CC(=O)C[C@@H](C)[C@H]1CC[C@@]2(C)[C@@H]3CC[C@H]4C(C)(C)C(=O)CC[C@@]45C[C@@]35CC[C@]12C,> 10 µM,> 10 µM,> 10 µM,> 10 µM,> 10 µM
C[C@H](C/C=C/C(C)(C)O)[C@H]1CC[C@@]2(C)[C@@H]3CC[C@H]4C(C)(C)[C@H](O)CC[C@@]45C[C@@]35CC[C@]12C,> 10 µM,> 10 µM,> 10 µM,9.3 µM,> 10 µM
C=C1CC[C@@H]2[C@H]([C@H]3[C@@H]1CC[C@]3(C)O)[C@@]2(C)CCC=C(C)C,> 10 µM,> 10 µM,> 10 µM,> 10 µM,> 10 µM
CC(C)CC(=O)[C@@H](O)[C@H](C)[C@@H]1CC[C@]2(C)C3=CC[C@H]4C(C)(C)C(=O)CC[C@]4(C)[C@H]3CC[C@@]12C,> 10 µM,> 10 µM,> 10 µM,> 10 µM,> 10 µM
CC(C)=CC(=O)C[C@@H](C)[C@H]1CC[C@@]2(C)[C@@H]3CC[C@H]4C(C)(C)[C@@H](O)CC[C@@]45C[C@@]35CC[C@]12C,> 10 µM,> 10 µM,> 10 µM,> 10 µM,> 10 µM
CC(C)=CCC[C@@H](CO)[C@H]1CC[C@@]2(C)[C@@H]3CC[C@H]4C(C)(C)C(=O)CC[C@@]45C[C@@]35CC[C@]12C,6.2 µM,> 10 µM,3.9 µM,7.4 µM,6.5 µM
CC(C)=CCC[C@]1(C)[C@H]2[C@@H]3[C@H](C)CC[C@H]3[C@](C)(O)CC[C@H]21,> 10 µM,> 10 µM,8.9 µM,> 10 µM,8.9 µM
C[C@@H](C[C@@H](O)[C@@H]1OC1(C)C)[C@@H]1CC[C@]2(C)C3=CC[C@H]4C(C)(C)C(=O)CC[C@]4(C)[C@H]3CC[C@@]12C,6.1 µM,6.9 µM,4.6 µM,7.1 µM,5.9 µM
C[C@@H]([C@@H]1O[C@@H]1[C@@H]1OC1(C)C)[C@@H]1CC[C@]2(C)C3=CC[C@H]4C(C)(C)C(=O)CC[C@]4(C)[C@H]3CC[C@@]12C,8.3 µM,> 10 µM,8.1 µM,> 10 µM,5.4 µM
CC(C)=C[C@H]1C[C@H]([C@H]2CC[C@@]3(C)[C@@H]4CC[C@H]5C(C)(C)C(=O)CC[C@@]56C[C@@]46CC[C@]23C)CO1,> 10 µM,> 10 µM,> 10 µM,> 10 µM,> 10 µM
CC(C)=C[C@H](O)C[C@@H](CO)[C@H]1CC[C@@]2(C)[C@@H]3CC[C@H]4C(C)(C)C(=O)CC[C@@]45C[C@@]35CC[C@]12C (mixture of isomers),9.9 µM,> 10 µM,> 10 µM,> 10 µM,> 10 µM
C[C@H]([C@H]1OC(C)(C)[C@@H](O)[C@@H]1O)[C@@H]1CC[C@]2(C)C3=CC[C@H]4C(C)(C)C(=O)CC[C@]4(C)[C@H]3CC[C@@]12C (relative stereo),> 10 µM,> 10 µM,> 10 µM,> 10 µM,> 10 µM
CC(C)(O)[C@@H]1CC[C@H]([C@H]2CC[C@@]3(C)[C@@H]4CC[C@H]5C(C)(C)C(=O)CC[C@@]56C[C@@]46CC[C@]23C)CO1 (relative stereo),> 10 µM,> 10 µM,> 10 µM,> 10 µM,9.1 µM
C[C@H](C[C@@H](O)[C@@H]1OC1(C)C)[C@H]1CC[C@@]2(C)[C@@H]3CC[C@H]4C(C)(C)C(=O)CC[C@@]45C[C@@]35CC[C@]12C (relative stereo),> 10 µM,> 10 µM,> 10 µM,> 10 µM,> 10 µM
C[C@@H](C[C@@H](O)[C@@H]1OC1(C)C)[C@@H]1CC[C@]2(C)C3=CC[C@H]4C(C)(C)[C@@H](O)CC[C@]4(C)[C@H]3CC[C@@]12C [DIHYDRONILOTICIN],5.1 µM,7.2 µM,4.8 µM,4.7 µM,5.2 µM
CC(=O)O[C@H]1C(=O)[C@@]2(C)[C@H]([C@H](OC(=O)c3ccccc3)[C@]3(O)C[C@H](OC(=O)[C@H](O)[C@@H](NC(=O)c4ccccc4)c4ccccc4)C(C)=C1C3(C)C)[C@]1(OC(C)=O)CO[C@@H]1C[C@@H]2O [PACLITAXEL],2.21 µM,,0.0071 µM,0.0084 µM,
